Measured values published in ChEMBL document CHEMBL2413072, “Synthesis and in vitro anticancer studies of novel C-2 arylidene congeners of lantadenes” (2013).

Tests used:
Type in all cases: functional
CCRF-CEM = assay: Growth inhibition of human CCRF-CEM cells assessed as cell growth at 10^-6 M by sulforhodamine B assay; details: read-out: Activity
MDA-MB-468 [1] = assay: Growth inhibition of human MDA-MB-468 cells assessed as cell growth at 10^-8 M by sulforhodamine B assay; details: read-out: Activity
SN12C [2] = assay: Growth inhibition of human SN12C cells assessed as cell growth at 10^-4 M by sulforhodamine B assay; details: read-out: Activity
SN12C [3] = assay: Growth inhibition of human SN12C cells assessed as cell growth at 10^-8 M by sulforhodamine B assay; details: read-out: Activity
OVCAR-3 = assay: Growth inhibition of human OVCAR3 cells assessed as cell growth at 10^-4 M by sulforhodamine B assay; details: read-out: Activity
SK-OV-3 = assay: Growth inhibition of human SKOV3 cells assessed as cell growth at 10^-6 M by sulforhodamine B assay; details: read-out: Activity
K562 [4] = assay: Growth inhibition of human K562 cells by sulforhodamine B assay
ACHN [5] = assay: Growth inhibition of human ACHN cells assessed as cell growth at 10^-6 M by sulforhodamine B assay; details: read-out: Activity
NCI-H23 = assay: Growth inhibition of human NCI-H23 cells assessed as cell growth at 10^-6 M by sulforhodamine B assay; details: read-out: Activity
NCI-H522 = assay: Growth inhibition of human NCI-H522 cells assessed as cell growth at 10^-7 M by sulforhodamine B assay; details: read-out: Activity
UACC-257 [6] = assay: Growth inhibition of human UACC257 cells assessed as cell growth at 10^-6 M by sulforhodamine B assay; details: read-out: Activity
MDA-MB-468 [7] = assay: Growth inhibition of human MDA-MB-468 cells assessed as cell growth at 10^-6 M by sulforhodamine B assay; details: read-out: Activity
Malme-3M = assay: Growth inhibition of human MALME-3M cells assessed as cell growth at 10^-8 M by sulforhodamine B assay; details: read-out: Activity
NCI-H226 = assay: Growth inhibition of human NCI-H226 cells by sulforhodamine B assay
UACC-62 [8] = assay: Growth inhibition of human UACC62 cells by sulforhodamine B assay
SK-MEL-28 [9] = assay: Growth inhibition of human SK-MEL-28 cells assessed as cell growth at 10^-8 M by sulforhodamine B assay; details: read-out: Activity
RXF 393 = assay: Growth inhibition of human RXF393 cells assessed as cell growth at 10^-6 M by sulforhodamine B assay; details: read-out: Activity
M14 = assay: Growth inhibition of human M14 cells assessed as cell growth at 10^-4 M by sulforhodamine B assay; details: read-out: Activity
SK-MEL-2 = assay: Growth inhibition of human SK-MEL-2 cells by sulforhodamine B assay
ACHN [10] = assay: Growth inhibition of human ACHN cells by sulforhodamine B assay
MDA-MB-231 [11] = assay: Growth inhibition of human MDA-MB-231 cells assessed as cell growth at 10^-6 M by sulforhodamine B assay; details: read-out: Activity
SR [12] = assay: Growth inhibition of human SR cells assessed as cell growth at 10^-4 M by sulforhodamine B assay; details: read-out: Activity
HT-29 = assay: Growth inhibition of human HT-29 cells assessed as cell growth at 10^-6 M by sulforhodamine B assay; details: read-out: Activity
HCT-116 = assay: Growth inhibition of human HCT116 cells by sulforhodamine B assay
K562 [13] = assay: Growth inhibition of human K562 cells assessed as cell growth at 10^-4 M by sulforhodamine B assay; details: read-out: Activity
BT-549 = assay: Growth inhibition of human BT549 cells assessed as cell growth at 10^-8 M by sulforhodamine B assay; details: read-out: Activity
MDA-MB-231 [14] = assay: Growth inhibition of human MDA-MB-231 cells assessed as cell growth at 10^-4 M by sulforhodamine B assay; details: read-out: Activity
U-251 = assay: Growth inhibition of human U251 cells assessed as cell growth at 10^-7 M by sulforhodamine B assay; details: read-out: Activity
NCI-H322M = assay: Growth inhibition of human NCI-H322M cells assessed as cell growth at 10^-8 M by sulforhodamine B assay; details: read-out: Activity
UACC-257 [15] = assay: Growth inhibition of human UACC257 cells assessed as cell growth at 10^-4 M by sulforhodamine B assay; details: read-out: Activity
HL-60(TB) = assay: Growth inhibition of human HL-60(TB) cells assessed as cell growth at 10^-7 M by sulforhodamine B assay; details: read-out: Activity
[16] = Growth inhibition of human NCI-ADR-RES cells assessed as cell growth at 10^-6 M by sulforhodamine B assay; details: read-out: Activity
COLO 205 = assay: Growth inhibition of human COLO205 cells assessed as cell growth at 10^-8 M by sulforhodamine B assay; details: read-out: Activity
HOP-92 = assay: Growth inhibition of human HOP92 cells assessed as cell growth at 10^-7 M by sulforhodamine B assay; details: read-out: Activity
UACC-257 [17] = assay: Growth inhibition of human UACC257 cells assessed as cell growth at 10^-8 M by sulforhodamine B assay; details: read-out: Activity
UACC-62 [18] = assay: Growth inhibition of human UACC62 cells assessed as cell growth at 10^-7 M by sulforhodamine B assay; details: read-out: Activity
SK-MEL-28 [19] = assay: Growth inhibition of human SK-MEL-28 cells assessed as cell growth at 10^-4 M by sulforhodamine B assay; details: read-out: Activity
KM12 = assay: Growth inhibition of human KM12 cells by sulforhodamine B assay
A498 = assay: Growth inhibition of human A498 cells assessed as cell growth at 10^-4 M by sulforhodamine B assay; details: read-out: Activity
[20] = Growth inhibition of human Hs 578T cells assessed as cell growth at 10^-7 M by sulforhodamine B assay; details: read-out: Activity
SR [21] = assay: Growth inhibition of human SR cells assessed as cell growth at 10^-6 M by sulforhodamine B assay; details: read-out: Activity
[22] = read-out: LC50 (the source's name)
[23] = read-out: pLC50 (the source's name) (converted)

In the case of CC1(C)C[C@@H](O)[C@]2(C(=O)O)CC[C@]3(C)C(=CC[C@@H]4[C@@]5(C)C/C(=C\C=C\c6ccccc6)C(=O)C(C)(C)[C@@H]5CC[C@]43C)[C@@H]2C1, the growth at 1 µM (CCRF-CEM) was 96%, the growth at 0.01 µM (MDA-MB-468 [1]) was 95% and the growth at 100 µM (SN12C [2]) was -92%. For the same molecule, the growth at 0.01 µM (SN12C [3]) was 98%, the growth at 100 µM (OVCAR-3) was -90% and the growth at 1 µM (SK-OV-3) was 96%. For the same molecule, the GI50 (K562 [4]; read-out: GI50) was 3.74 µM, the LC50 (K562 [4]; read-out: LC50) was over 100 µM and the TGI (K562 [4]; read-out: TGI) was over 100 µM. For the same molecule, the GI50 (K562 [4]; read-out: pGI50 (converted)) was 3.72 µM, the LC50 (K562 [4]; read-out: pLC50 (converted)) was over 100 µM and the TGI (K562 [4]; read-out: pTGI (converted)) was over 100 µM. The growth at 1 µM (ACHN [5]) was 97%, the growth at 1 µM (NCI-H23) was 95% and the growth at 0.1 µM (NCI-H522) was 94%. The growth at 1 µM (UACC-257 [6]) was 89%, the growth at 1 µM (MDA-MB-468 [7]) was 92% and the growth at 0.01 µM (Malme-3M) was 92%. The GI50 (NCI-H226; read-out: GI50) was 2.78 µM, the LC50 (NCI-H226; read-out: LC50) was 56.2 µM and the TGI (NCI-H226; read-out: TGI) was 12.8 µM. For the same molecule, the GI50 (NCI-H226; read-out: pGI50 (converted)) was 2.75 µM, the LC50 (NCI-H226; read-out: pLC50 (converted)) was 56.2 µM and the TGI (NCI-H226; read-out: pTGI (converted)) was 12.9 µM. It also gave a GI50 (UACC-62 [8]; read-out: GI50) of 1.76 µM, a CC50 (UACC-62 [8]; [22]) of 7.84 µM and a TGI (UACC-62 [8]; read-out: TGI) of 3.71 µM. It also gave a GI50 (UACC-62 [8]; read-out: pGI50 (converted)) of 1.78 µM, a CC50 (UACC-62 [8]; [23]) of 7.76 µM and a TGI (UACC-62 [8]; read-out: pTGI (converted)) of 3.72 µM. For the same molecule, the growth at 0.01 µM (SK-MEL-28 [9]) was 99%, the growth at 1 µM (RXF 393) was 96% and the growth at 100 µM (M14) was -77%. For the same molecule, the GI50 (SK-MEL-2; read-out: GI50) was 2.35 µM, the CC50 (SK-MEL-2; [22]) was 26.3 µM and the TGI (SK-MEL-2; read-out: TGI) was 5.57 µM. The GI50 (SK-MEL-2; read-out: pGI50 (converted)) was 2.34 µM, the CC50 (SK-MEL-2; [23]) was 26.3 µM and the TGI (SK-MEL-2; read-out: pTGI (converted)) was 5.62 µM. The GI50 (ACHN [10]; read-out: GI50) was 3.65 µM, the CC50 (ACHN [10]; [22]) was 39.2 µM and the TGI (ACHN [10]; read-out: TGI) was 13.3 µM. The GI50 (ACHN [10]; read-out: pGI50 (converted)) was 3.63 µM, the CC50 (ACHN [10]; [23]) was 38.9 µM and the TGI (ACHN [10]; read-out: pTGI (converted)) was 13.2 µM. The growth at 1 µM (MDA-MB-231 [11]) was 92%, the growth at 100 µM (SR [12]) was -24% and the growth at 1 µM (HT-29) was 99%. For the same molecule, the GI50 (HCT-116; read-out: GI50) was 2.89 µM, the LC50 (HCT-116; read-out: LC50) was 82.7 µM and the TGI (HCT-116; read-out: TGI) was 11.2 µM. For the same molecule, the GI50 (HCT-116; read-out: pGI50 (converted)) was 2.88 µM, the LC50 (HCT-116; read-out: pLC50 (converted)) was 83.2 µM and the TGI (HCT-116; read-out: pTGI (converted)) was 11.2 µM. It also gave a growth at 100 µM (K562 [13]) of 1%, a growth at 0.01 µM (BT-549) of 101% and a growth at 100 µM (MDA-MB-231 [14]) of -93%. The growth at 0.1 µM (U-251) was 95%, the growth at 0.01 µM (NCI-H322M) was 98% and the growth at 100 µM (UACC-257 [15]) was -88%. For the same molecule, the growth at 0.1 µM (HL-60(TB)) was 108%, the growth at 1 µM [16] was 87% and the growth at 0.01 µM (COLO 205) was 103%. It also gave a growth at 0.1 µM (HOP-92) of 90%, a growth at 0.01 µM (UACC-257 [17]) of 93% and a growth at 0.1 µM (UACC-62 [18]) of 93%. It also gave a growth at 100 µM (SK-MEL-28 [19]) of -80%, a GI50 (KM12; read-out: GI50) of 3.01 µM and an LC50 (50% net cell kill) (KM12; read-out: LC50) of 47.2 µM. It also gave a TGI (KM12; read-out: TGI) of 11.2 µM, a GI50 (KM12; read-out: pGI50 (converted)) of 3.02 µM and an LC50 (50% net cell kill) (KM12; read-out: pLC50 (converted)) of 46.8 µM. It also gave a TGI (KM12; read-out: pTGI (converted)) of 11.2 µM, a growth at 100 µM (A498) of -97% and a growth at 0.1 µM [20] of 92%. For the same molecule, the growth at 1 µM (SR [21]) was 94%.
